Assays:
S. aureus = experiment: Well diffusion assay, antibacterial; format: cell-based, Staphylococcus aureus; conditions: 10 μl
From the text: (§1) The investigation focused on the antibacterial properties of extracts derived from onion peel, pomegranate peel, and chia seed, particularly when encapsulated in nanoformulations (OPE-CSNP and PPE-CSNP). The extracts, known for their richness in bioactive compounds like phenolic compounds, flavonoids, and tannins, were explored for potential health benefits against various microbes. The study employed the inhibition zone diameter to evaluate the effectiveness of these natural extracts in inhibiting microbial growth, thereby assessing their antimicrobial properties.
(§2) Moreover, these composites show promise as food preservatives, potentially extending shelf life, given their moderate antimicrobial activity against B. cereus and S. aureus.

B. cereus = experiment: Well diffusion assay, antibacterial; format: cell-based, Bacillus cereus; conditions: 10 μl
From the text: as §1, §2

Molecule | Inhibition zone diameter (mm) S. aureus (S. aureus) [mm] | Inhibition zone diameter (mm) B. cereus (B. cereus) [mm]
CC1(C)S[C@@H]2[C@H](NC(=O)[C@H](N)c3ccccc3)C(=O)N2[C@H]1C(=O)O [Ampicillin, ampicillin] | 16 | 16
penicillin | 14 | 14
